From patent publication US10927096B2, “Ester substituted ion channel blockers and methods for use” (Nocion Therapeutics, Inc., priority 2019, dated 2021)

Columns and labels:
NaV1.7 = molecular target: T1, NaV1.7 (Homo sapiens, UniProt Q15858); experiment: Whole cell patch clamp, internal block of NaV1.7 current; format: cell-based; settings: % inhibition at 1 μM test concentration, compound in internal solution, manual whole cell patch clamp
T1 construct: expressed in transfected cells; host or cells: HEK293, tetracycline-inducible
T1 sequence (Q15858 whole entry): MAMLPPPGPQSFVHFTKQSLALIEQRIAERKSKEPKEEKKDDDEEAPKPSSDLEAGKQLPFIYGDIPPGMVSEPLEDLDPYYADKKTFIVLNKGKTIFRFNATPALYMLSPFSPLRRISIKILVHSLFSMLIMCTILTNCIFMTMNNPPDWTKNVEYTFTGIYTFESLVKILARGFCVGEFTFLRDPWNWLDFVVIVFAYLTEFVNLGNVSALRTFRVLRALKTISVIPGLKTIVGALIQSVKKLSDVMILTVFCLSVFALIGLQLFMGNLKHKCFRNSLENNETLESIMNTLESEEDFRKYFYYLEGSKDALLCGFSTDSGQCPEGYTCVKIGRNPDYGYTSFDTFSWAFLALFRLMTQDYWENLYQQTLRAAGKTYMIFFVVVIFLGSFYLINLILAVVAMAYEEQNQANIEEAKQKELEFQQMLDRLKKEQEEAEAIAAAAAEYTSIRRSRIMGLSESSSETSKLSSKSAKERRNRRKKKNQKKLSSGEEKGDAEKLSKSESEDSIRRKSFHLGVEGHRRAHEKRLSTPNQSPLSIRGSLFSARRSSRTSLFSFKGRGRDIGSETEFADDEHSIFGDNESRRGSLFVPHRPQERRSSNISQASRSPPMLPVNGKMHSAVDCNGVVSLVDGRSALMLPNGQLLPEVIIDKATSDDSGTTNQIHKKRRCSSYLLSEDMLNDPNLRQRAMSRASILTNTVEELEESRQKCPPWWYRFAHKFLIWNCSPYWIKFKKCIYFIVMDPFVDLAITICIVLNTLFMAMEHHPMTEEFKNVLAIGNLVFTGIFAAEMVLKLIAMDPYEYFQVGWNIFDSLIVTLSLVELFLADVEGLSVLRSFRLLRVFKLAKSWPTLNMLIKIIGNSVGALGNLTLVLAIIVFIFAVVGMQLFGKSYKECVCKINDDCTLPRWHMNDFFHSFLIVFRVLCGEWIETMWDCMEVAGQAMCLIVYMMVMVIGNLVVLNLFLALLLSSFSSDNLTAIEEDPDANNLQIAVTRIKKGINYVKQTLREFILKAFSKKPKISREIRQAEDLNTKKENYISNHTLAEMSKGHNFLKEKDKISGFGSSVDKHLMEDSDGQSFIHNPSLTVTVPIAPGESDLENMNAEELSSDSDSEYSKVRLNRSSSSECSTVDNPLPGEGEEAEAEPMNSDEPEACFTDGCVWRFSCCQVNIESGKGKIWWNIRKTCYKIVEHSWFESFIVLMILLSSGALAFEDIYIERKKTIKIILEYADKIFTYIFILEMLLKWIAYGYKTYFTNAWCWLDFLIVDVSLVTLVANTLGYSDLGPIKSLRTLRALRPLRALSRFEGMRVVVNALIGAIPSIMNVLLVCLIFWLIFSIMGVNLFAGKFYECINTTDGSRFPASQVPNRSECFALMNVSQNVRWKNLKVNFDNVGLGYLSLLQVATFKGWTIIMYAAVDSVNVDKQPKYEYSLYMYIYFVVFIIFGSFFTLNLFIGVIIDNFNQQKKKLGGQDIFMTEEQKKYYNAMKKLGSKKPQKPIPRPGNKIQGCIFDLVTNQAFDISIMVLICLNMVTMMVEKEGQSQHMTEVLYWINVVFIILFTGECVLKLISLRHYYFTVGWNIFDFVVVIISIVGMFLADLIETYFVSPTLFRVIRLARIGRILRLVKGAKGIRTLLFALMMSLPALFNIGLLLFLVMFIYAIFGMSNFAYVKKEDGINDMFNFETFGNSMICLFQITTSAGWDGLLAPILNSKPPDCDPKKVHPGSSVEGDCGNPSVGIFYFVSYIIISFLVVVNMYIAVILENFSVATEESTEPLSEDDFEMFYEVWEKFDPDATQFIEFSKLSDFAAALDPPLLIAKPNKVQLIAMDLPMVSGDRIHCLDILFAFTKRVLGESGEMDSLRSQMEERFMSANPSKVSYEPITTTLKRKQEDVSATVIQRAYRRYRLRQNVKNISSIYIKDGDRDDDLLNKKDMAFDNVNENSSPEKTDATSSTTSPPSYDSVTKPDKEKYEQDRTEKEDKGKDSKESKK
Method: NaV1.7 was expressed upon induction with tetracycline. Cells were cultured in DMEM containing 10% dialyzed Fetal Bovine Serum (VWR, Radnor, Pa.), 1% Glutamax (VWR, Radnor, Pa.), 1% Penicillin-Streptomycin (VWR, Radnor, Pa.), 100 mg/L Hygromycin (Thermo Fisher Scientific, Waltham, Mass. and 5 mg/L Blasticidin (Alfa Aesar, Haverhill, Mass.). Cells were grown and maintained at 37° C. in a humidified environment containing 10% C02 in air. Cells were detached from the culture flask for passage and harvested using 0.05% Trypsin-EDTA (Thermo Fisher Scientific, Waltham, Mass.). To induce NaV1.7, cells were induced with tetracycline (0.1-1 μg/mL, IBI Scientific, Peosta, Iowa) the day before recording and plated onto 24-well plates. Cells were washed with DPBS (VWR, Radnor, Pa.), trypsinized and then triturated five times in 10 mL of growth media to break apart cell aggregates. For one 24-well plate, 2 mL of cell suspension was mixed with 23 mL of fresh growth media and 0.1-1 μg/mL tetracycline added. 1 ml of mixed media with cells was then added to each well of a 24-well plate, with a 12 mm coverslip already placed in the bottom of the well. Cells were then incubated in 37° C. and 10% CO2 overnight.
The intracellular solution contained the following (in mM) CsCl 135, NaCl 10, EGTA 10, HEPES 10, MgCl2 2, adjusted to pH 7.2 with CsOH. The external solution was a normal Ringer solution containing (in mM) NaCl 155, HEPES 10, glucose 10, KCl 3.5, CaCl2 1.5, MgCl2 1 adjusted to pH 7.4 with NaOH. CsCl is from Alfa Aesar, Haverhill, Mass. All other chemicals are from Sigma-Aldrich, St. Louis, Mo. In order to test the degree of internal block by test compounds the compounds were dissolved in internal solution at the indicated test concentration. […] In order to test the degree of external block by test compounds the compounds were dissolved in external solution at the indicated test concentration.
18-24 hours after cells were induced with tetracycline, coverslips were placed into a chamber filled with Normal Ringer solution at room temperature and the chamber placed on a microscope. Pipettes were pulled from borosilicate glass on a P97 puller (Sutter Instrument, Novato, Calif.) and polished with a MF-830 Microforge (Narishige International USA, Inc, Amityville, N.Y.) to have a resistance of 1.5-2.5 MΩ when filled with CsCl internal solution at room temperature. Healthy cells (those that are round and translucent with no visible blemishes) were chosen for seal formation. A seal was formed between the pipette and the cell, and a brief pulse of suction was used to “break in” and establish the whole-cell configuration. The membrane potential was held at −100 mV before the voltage protocol began. Only cells with series resistance between 1.5-5 MΩ were retained for analysis. The voltage protocol was as follows: Cells were held at −100 mV for 12 ms followed by a hyperpolarizing step to −105 mV for 12 ms to monitor the leak. Cells were then stepped back to −100 mV for 40 ms. Cells were then depolarized to −20 mV for 10 ms and then returned to −100 mV for 26 ms (The FIGURE).
Once the recording was started, the voltage protocol was run at 30 second intervals for 5 minutes to get a stable baseline. This was followed by four 30-second periods of 5 Hz stimulation of the same voltage protocol separated by 1 minute of rest which was then followed by 0.33 Hz stimulation after the last train. Currents were recorded using PatchMaster software with Heka EPC10 (HEKA Electronics, Lambrecht, Germany). Only cells with inward current amplitudes at −20 mV between 400 pA and 4 nA were accepted. In addition, cells having leak currents greater than 10% of their current amplitudes were discarded.
The data was plotted using the Patchmaster software (HEKA Electronics, Lambrecht, Germany) and analyzed by plotting the minimum current during the voltage step to −20 mV (peak inward current) as a function of time. […]

[1] = PAMPA membrane permeability assay; format: physicochemical; settings: pH 7.4 buffer, GIT lipid, 4 hours incubation
Method: The PAMPA assay (pION, Inc., Woburn Mass.) was used to determine the ability of compounds of the invention to cross an artificial lipid membrane by passive diffusion. Test compounds were dissolved in DMSO (10 mM) and diluted 200-fold in buffer (pION Inc., pH 7.4) to provide 50 uM stock solutions. Buffer (150 μL) was added to a UV blank plate and stock solutions (150 μL) were transferred to a UV reference plate. The blank and reference spectrum were read using a spectrophotometer. Stock solutions (200 μL) were added to the donor plate of the PAMPA sandwich plate and an accept plate painted with GIT lipid (pION Inc, 5 μL) was placed on top. Buffer (200 μL) was added to the acceptor plate and the PAMPA sandwich plate was incubated for 4 hours. Aliquots (150 μL) from the acceptor plate were added to a UV plate and read as acceptor spectrum. Aliquots (150 μL) of the donor solutions were added to a UV analysis plate and read as donor spectrum. The permeability coefficient of test compounds was calculated using PAMPA Explorer™ software (version 3.5.0.4) based on the AUC of the reference plate, the donor plate, and the acceptor plate.
The PAMPA permeability results (10^−6 cm/s) of representative compounds are reported as “+” (<0.1 10^−6 cm/s), “++” (0.1-2.0 10^−6 cm/s), “+++” (2.0-10.010^−6 cm/s) or “++++” (>10.0 10^−6 cm/s).

SMILES | NaV1.7 Intracellular Inhibition (NaV1.7) | PAMPA (10^−6 cm/s) [1] | inhibition at 1 µM (NaV1.7; read-out: NaV1.7 Intracellular Inhibition) [%]
CCCOC(=O)c1cccc(C)c1NC(=O)C[N+]1(Cc2ccccc2)CCCCCC1.[Br-] [Compound 6] | +++ (90-70%) | + (<0.1 10^−6 cm/s) | 
CCNC(=O)C1CCC[N+](CC(=O)Nc2c(C)cccc2C(=O)OC)(Cc2ccccc2)C1.O=C([O-])C(F)(F)F (stereo not drawn) [Compound 33] | ++ (70-30%) | ++ (0.1-2.0 10^−6 cm/s) | 
CCN(CC)C(=O)C[N+]1(CC(=O)Nc2c(C)cccc2C(=O)OC)CCCC(c2ccccc2)C1 (mixture of isomers) [Compound 62] | ++ (70-30%) | + (<0.1 10^−6 cm/s) | 
COC(=O)c1cccc(C)c1NC(=O)C[N+]1(Cc2ccccc2)CCCC(C(N)=O)C1.[Br-] (stereo not drawn) [Compound 30] | ++ (70-30%) | + (<0.1 10^−6 cm/s) | 
COC(=O)c1cccc(C)c1NC(=O)C[N+]1(Cc2ccccc2)CCCC1 [Compound 5] | ++ (70-30%) | +++ (2.0-10.010^−6 cm/s) | 
CNC(=O)C1CCC[N+](CC(=O)Nc2c(C)cccc2C(=O)OC)(Cc2ccccc2)C1 (mixture of isomers) [Compound 31] | ++ (70-30%) | + (<0.1 10^−6 cm/s) | 
CC[N+]1(CC(=O)Nc2c(C)cccc2C(=O)OC)CCCC(C(=O)NC2CCCCC2)C1.[I-] (stereo not drawn) [Compound 56] | ++ (70-30%) | + (<0.1 10^−6 cm/s) | 
CCOC(=O)c1cccc(C)c1NC(=O)C[N+]1(Cc2ccccc2)CCCCCC1 [Compound 2] | ++++ (>90%) | + (<0.1 10^−6 cm/s) | 
CC[N+]1(CC(=O)Nc2c(C)cccc2C(=O)OC)CCCC(c2ccccc2)C1 (mixture of isomers) [Compound 65] | ++++ (>90%) | + (<0.1 10^−6 cm/s) | 
COC(=O)c1cccc(C)c1NC(=O)C[N+]1(CC(N)=O)CCCC(c2ccccc2)C1 (mixture of isomers) [Compound 61] | +++ (90-70%) | + (<0.1 10^−6 cm/s) | 
COC(=O)c1cccc(C)c1NC(=O)C[N+]1(Cc2ccccc2)CCCC(C(=O)NC2CCCC2)C1.[Br-] (stereo not drawn) [Compound 41] | + (<30%) | + (<0.1 10^−6 cm/s) | 
CC[N+]1(CC(=O)Nc2c(C)cccc2C(=O)OC)CCCC(C(=O)N2CCCC2)C1 (mixture of isomers) [Compound 54] | ++ (70-30%) | + (<0.1 10^−6 cm/s) | 
COC(=O)c1cccc(C)c1NC(=O)C[n+]1cccc(-c2ccccc2)c1.[Br-] [Compound 66] | +++ (90-70%) | + (<0.1 10^−6 cm/s) | 
CNC(=O)C[N+]1(CC(=O)Nc2c(C)cccc2C(=O)OC)CCCC(c2ccccc2)C1.[Br-] (mixture of isomers) [Compound 59] | +++ (90-70%) | + (<0.1 10^−6 cm/s) | 
CCOC(=O)C[N+]1(CC(=O)Nc2c(C)cccc2C(=O)OC)CCCC(c2ccccc2)C1.O=C([O-])C(F)(F)F (stereo not drawn) [Compound 63] | +++ (90-70%) | +++ (2.0-10.010^−6 cm/s) | 
COC(=O)c1cccc(C)c1NC(=O)C[N+]1(Cc2ccccc2)CCCC(C(=O)NCC(C)C)C1.[Br-] (stereo not drawn) [Compound 36] | ++ (70-30%) | +++ (2.0-10.010^−6 cm/s) | 
CCOC(=O)c1cccc(C)c1NC(=O)C[n+]1cccc(-c2ccccc2)c1 [Compound 67] | +++ (90-70%) | +++ (2.0-10.010^−6 cm/s) | 
CCCOC(=O)C1CCC[N+](CC)(CC(=O)Nc2c(C)cccc2C(=O)OC)C1.[I-] (stereo not drawn) [Compound 26] | ++ (70-30%) | + (<0.1 10^−6 cm/s) | 
COC(=O)c1cccc(C)c1NC(=O)C[N+]1(Cc2ccccc2)CCCCCC1 [Compound 1] | ++++ (>90%) | + (<0.1 10^−6 cm/s) | 
CCCCOC(=O)C1CCC[N+](CC)(CC(=O)Nc2c(C)cccc2C(=O)OC)C1.[I-] (mixture of isomers) [Compound 15] | ++ (70-30%) | + (<0.1 10^−6 cm/s) | 
CCOC(=O)c1cccc(C)c1NC(=O)C[N+]1(Cc2ccccc2)CCCC1.[Br-] [Compound 9] | +++ (90-70%) | + (<0.1 10^−6 cm/s) | 
CC[N+]1(CC(=O)Nc2c(C)cccc2C(=O)OC)CCCC(C(=O)N2CCCCC2)C1.[I-] (stereo not drawn) [Compound 45] | ++ (70-30%) | + (<0.1 10^−6 cm/s) | 
COC(=O)c1cccc(C)c1NC(=O)C[n+]1cccn1C1CCCCC1.[Br-] [Compound 69] | ++ (70-30%) | ++ (0.1-2.0 10^−6 cm/s) | 
Cc1cccc(C(=O)OC(C)(C)C)c1NC(=O)C[n+]1cccn1C1CCCCC1.[Br-] [Compound 72] | ++ (70-30%) | + (<0.1 10^−6 cm/s) | 
COC(=O)c1cccc(C)c1NC(=O)C[N+]1(CC(=O)N(C)C)CCCC(c2ccccc2)C1.O=C([O-])C(F)(F)F (stereo not drawn) [Compound 60] | ++ (70-30%) | + (<0.1 10^−6 cm/s) | 
COC(=O)c1cccc(C)c1NC(=O)C[N+]1(Cc2ccccc2)CCCC(C(=O)N(C)C)C1 (mixture of isomers) [Compound 40] | ++ (70-30%) | + (<0.1 10^−6 cm/s) | 
COC(=O)C[N+]1(CC(=O)Nc2c(C)cccc2C(=O)OC)CCCC(c2ccccc2)C1 (mixture of isomers) [Compound 64] | ++ (70-30%) | + (<0.1 10^−6 cm/s) | 
COC(=O)c1cccc(C)c1NC(=O)C[N+]1(Cc2ccccc2)CCCC(C(=O)N2CCCCCC2)C1.[Br-] (stereo not drawn) [Compound 34] | ++ (70-30%) | + (<0.1 10^−6 cm/s) | 
CCCCOC(=O)C1CCC[N+](CC(=O)Nc2c(C)cccc2C(=O)OC)(Cc2ccccc2)C1.[Br-] (mixture of isomers) [Compound 14] | ++ (70-30%) | + (<0.1 10^−6 cm/s) | 
CCC(C(=O)Nc1c(C)cccc1C(=O)OC)[N+]1(Cc2ccccc2)CCCCC1 (stereo not drawn) [Compound 57] |  | + (<0.1 10^−6 cm/s) | 30 to 70
